# Read-outs that look alike come from different tables or passages of the source.
# How the values were obtained:
# [1] = system: induction of transcription by p21 (CDKI pathway, CMV promoter-GFP) in HT1080 fibrosarcoma cells; assay: Cellular assay for CDKI pathway inhibition: CMV-GFP induction by IPTG-inducible p21 in HT1080 reporter cells; assay type: cell-based, human
# Description: Briefly, the reporter cell line described in the above-referenced application, which carries IPTG (isopropyl-β-thio-galactoside)-inducible p21 gene together with a p21-inducible promoter driving the expression of Green Fluorescent Protein (GFP) was plated in 96-well plates, at 2000 cells per well for the no-IPTG arm of the assay and at 5000 cells per well for the IPTG arm of the assay. To induce the maximal levels of p21, IPTG was added to 50 μM concentration. Serial 2-fold dilutions of the tested compounds were added in quadruplicates to wells with and without IPTG, ˜10 min after IPTG addition.
# This assay is based on the induction of green fluorescent protein (GFP) expression from the cytomegalovirus (CMV) promoter in human HT1080 fibrosarcoma cells that express CDKI p21 from an isopropyl-(3-thio-galactoside (IPTG)-inducible promoter. The compound activity as a CDKI pathway inhibitor is measured by its ability to prevent the stimulation of the CMV promoter upon the addition of p21-inducing IPTG. CMV promoter activity is measured by the ratio of GFP fluorescence to the relative cell number, as determined by staining cellular DNA with Hoechst 33342. This assay was conducted in two modes. […]
# [2] = molecular target: CDK7 (Homo sapiens, UniProt P50613); assay: KinaseProfiler (Millipore) kinase inhibition; assay type: biochemical; parameters: purchased KinaseProfiler of Millipore Corporation; details: 10 μM
# Excerpt: (§1) This similarity led us to test SNX14 for the ability to inhibit 285 kinases, using the services of KinaseProfiler of Millipore Corporation (285 kinases). […] The KINOMEscan assay has been described in detail in Fabian et al., Nat. Biotechnol. 23: 329 (2005) and Karaman et al., Nat. Biotechnol. 26: 127 (2008).
# (§2) The KinomeScan assay is based on a competition binding assay that quantitatively measures the ability of a compound to compete with an immobilized, ATP site directed ligand. The assay is performed by combining three components: DNA-tagged kinase; immobilized ligand; and a test compound. The ability of the test compound to compete with the immobilized ligand is measured via quantitative PCR of the DNA tag. […] The CDKs tested by Millipore for inhibition with SNX14 included CDK1, CDK2, CDK3, CDK5, CDK7 and CDK9; none of these were inhibited to less than 49 percent of control (POC) activity. The CDKs tested by KinomeScan for the effect of Compound 1 included CDK2, CDK3, CDK4, CDK5, CDK7, CDK8, CDK9 and CDK19; aside from CDK8 and CDK19, the strongest inhibited CDK was CDK7 (33% POC binding). […] We have also determined the binding constant (Kd) for SNX14, compound 1, compound 20, compound 26, compound 43 and compound 14 in kinase assays for CDK8 and CDK19 (Table 1).
# [3] = molecular target: T1, CDK3 (Homo sapiens, UniProt Q00526); assay: KinaseProfiler (Millipore) kinase inhibition; assay type: biochemical; details: 10 μM
# T1 construct: purchased KinaseProfiler of Millipore Corporation
# Excerpt: as §1
# as §2, with “binding). To determine the inhibition of which kinases correlates with the biological activity of SNX2-class compounds, we tested eight additional compounds of the SNX2 family, which gave different IC50 values in the cellular assays, for the ability to affect 24 kinases that were most susceptible to compound 1, through the services of KinomeScan.” for “binding).”
# [4] = molecular target: T2, CDK9 (Homo sapiens, UniProt P50750); assay: KinaseProfiler (Millipore) kinase inhibition; assay type: biochemical; details: 10 μM
# T2 construct: purchased KinaseProfiler of Millipore Corporation
# Excerpt: as §1
# as §2, with “binding). To determine the inhibition of which kinases correlates with the biological activity of SNX2-class compounds, we tested eight additional compounds of the SNX2 family, which gave different IC50 values in the cellular assays, for the ability to affect 24 kinases that were most susceptible to compound 1, through the services of KinomeScan.” for “binding).”
# [5] = molecular target: T3, CDK1 (Homo sapiens, UniProt P06493); assay: KinaseProfiler (Millipore) kinase inhibition; assay type: biochemical; details: 10 μM
# T3 construct: purchased KinaseProfiler of Millipore Corporation
# Excerpt: as §1
# as §2, with “binding). To determine the inhibition of which kinases correlates with the biological activity of SNX2-class compounds, we tested eight additional compounds of the SNX2 family, which gave different IC50 values in the cellular assays, for the ability to affect 24 kinases that were most susceptible to compound 1, through the services of KinomeScan.” for “binding).”
# [6] = molecular target: T4, CDK2 (Homo sapiens, UniProt P24941); assay: KinaseProfiler (Millipore) kinase inhibition; assay type: biochemical; details: 10 μM
# T4 construct: purchased KinaseProfiler of Millipore Corporation
# Excerpt: as §1
# as §2, with “binding). To determine the inhibition of which kinases correlates with the biological activity of SNX2-class compounds, we tested eight additional compounds of the SNX2 family, which gave different IC50 values in the cellular assays, for the ability to affect 24 kinases that were most susceptible to compound 1, through the services of KinomeScan.” for “binding).”
# [7] = molecular target: T5, CDK5 (Homo sapiens, UniProt Q00535); assay: KinaseProfiler (Millipore) kinase inhibition; assay type: biochemical; details: 10 μM
# T5 construct: purchased KinaseProfiler of Millipore Corporation
# Excerpt: as §1
# as §2, with “binding). To determine the inhibition of which kinases correlates with the biological activity of SNX2-class compounds, we tested eight additional compounds of the SNX2 family, which gave different IC50 values in the cellular assays, for the ability to affect 24 kinases that were most susceptible to compound 1, through the services of KinomeScan.” for “binding).”
# [8] = molecular target: T6, CDK8 (Homo sapiens, UniProt P49336); assay: KinomeScan competition binding assay; details: read-out: CDK8 inhibition (Kd)
# T6 construct: purchased KinomeScan, a division of Ambit Biosciences
# Excerpt: as §1
# as §2, with “binding). To determine the inhibition of which kinases correlates with the biological activity of SNX2-class compounds, we tested eight additional compounds of the SNX2 family, which gave different IC50 values in the cellular assays, for the ability to affect 24 kinases that were most susceptible to compound 1, through the services of KinomeScan.” for “binding).”
# [9] = molecular target: T7, CDK19 (Homo sapiens, UniProt Q9BWU1); assay: KinomeScan competition binding assay; details: read-out: CDK19 inhibition (Kd)
# T7 construct: purchased KinomeScan, a division of Ambit Biosciences
# Excerpt: as §1
# as §2, with “binding). To determine the inhibition of which kinases correlates with the biological activity of SNX2-class compounds, we tested eight additional compounds of the SNX2 family, which gave different IC50 values in the cellular assays, for the ability to affect 24 kinases that were most susceptible to compound 1, through the services of KinomeScan.” for “binding).”
# [10] = molecular target: T8, MET (Homo sapiens, UniProt P08581); details: 10 μM; data from Cee et al. (2009); cited from earlier work
# T8 construct: purchased KinomeScan, a division of Ambit Biosciences
# [11] = molecular target: T9, LTK (Homo sapiens, UniProt P29376); details: 10 μM; data from Cee et al. (2009); cited from earlier work
# T9 construct: purchased KinomeScan, a division of Ambit Biosciences
# [12] = molecular target: T10, CIT (Homo sapiens, UniProt O14578); details: 10 μM; data from Cee et al. (2009); cited from earlier work
# T10 construct: purchased KinomeScan, a division of Ambit Biosciences
# [13] = system: several other types of human cells; details: Aoki et al., 2007; read-out: antiproliferative activity against several other types of human cells; cited from earlier work
# [14] = molecular target: T7, CDK19; details: cited from earlier work
# [15] = molecular target: T11, RIOK2 (Homo sapiens, UniProt Q9BVS4); details: 10 μM; data from Cee et al. (2009); cited from earlier work
# T11 construct: purchased KinomeScan, a division of Ambit Biosciences
# [16] = molecular target: T12, ROCK2 (Homo sapiens, UniProt O75116); details: cited from earlier work
# T12 construct: purchased KinomeScan, a division of Ambit Biosciences
# [17] = molecular target: T13, PKACb (Homo sapiens, UniProt P22694); details: 10 μM; data from Cee et al. (2009); cited from earlier work
# T13 construct: purchased KinomeScan, a division of Ambit Biosciences
# [18] = molecular target: T14, ALK (Homo sapiens, UniProt Q9UM73); details: 10 μM; data from Cee et al. (2009); cited from earlier work
# T14 construct: purchased KinomeScan, a division of Ambit Biosciences
# [19] = molecular target: T15, ROCK1 (Homo sapiens, UniProt Q13464); details: cited from earlier work
# T15 construct: purchased KinomeScan, a division of Ambit Biosciences
# [20] = system: human umbilical vein endothelial cells (HUVECs); details: Aoki et al., 2007; read-out: IC50, proliferation of HUVECs; cited from earlier work
# [21] = molecular target: T16, PRKG2 (Homo sapiens, UniProt Q13237); details: 10 μM; data from Cee et al. (2009); cited from earlier work
# T16 construct: purchased KinomeScan, a division of Ambit Biosciences
# [22] = molecular target: T17, PKACa (Homo sapiens, UniProt P17612); details: 10 μM; data from Cee et al. (2009); cited from earlier work
# T17 construct: purchased KinomeScan, a division of Ambit Biosciences
# [23] = molecular target: T18, CLK4 (Homo sapiens, UniProt Q9HAZ1); details: 10 μM; data from Cee et al. (2009); cited from earlier work
# T18 construct: purchased KinomeScan, a division of Ambit Biosciences
# [24] = molecular target: T19, JNK1 (Homo sapiens, UniProt P45983); details: 10 μM; data from Cee et al. (2009); cited from earlier work
# T19 construct: purchased KinomeScan, a division of Ambit Biosciences
# [25] = molecular target: T20, PIM2 (Homo sapiens, UniProt Q9P1W9); details: 10 μM; data from Cee et al. (2009); cited from earlier work
# T20 construct: purchased KinomeScan, a division of Ambit Biosciences
# [26] = molecular target: T21, ROS1 (Homo sapiens, UniProt P08922); details: 10 μM; data from Cee et al. (2009); cited from earlier work
# T21 construct: purchased KinomeScan, a division of Ambit Biosciences
# [27] = 10 μM, data from Cee et al. (2009)
# T7 sequence (Q9BWU1 whole entry): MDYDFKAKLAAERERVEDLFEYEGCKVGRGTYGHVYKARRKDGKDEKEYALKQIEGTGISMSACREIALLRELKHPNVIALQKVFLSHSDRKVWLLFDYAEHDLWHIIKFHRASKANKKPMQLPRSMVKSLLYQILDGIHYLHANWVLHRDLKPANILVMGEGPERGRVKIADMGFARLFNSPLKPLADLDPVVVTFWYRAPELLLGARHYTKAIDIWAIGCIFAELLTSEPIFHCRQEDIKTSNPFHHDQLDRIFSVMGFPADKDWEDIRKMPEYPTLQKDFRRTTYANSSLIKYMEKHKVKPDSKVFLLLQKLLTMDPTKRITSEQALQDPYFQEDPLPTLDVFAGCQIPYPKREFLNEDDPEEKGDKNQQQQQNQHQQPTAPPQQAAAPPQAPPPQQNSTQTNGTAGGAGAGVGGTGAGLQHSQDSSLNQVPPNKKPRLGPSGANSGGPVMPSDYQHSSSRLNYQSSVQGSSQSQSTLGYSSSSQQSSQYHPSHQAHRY
# T15 sequence (Q13464 whole entry): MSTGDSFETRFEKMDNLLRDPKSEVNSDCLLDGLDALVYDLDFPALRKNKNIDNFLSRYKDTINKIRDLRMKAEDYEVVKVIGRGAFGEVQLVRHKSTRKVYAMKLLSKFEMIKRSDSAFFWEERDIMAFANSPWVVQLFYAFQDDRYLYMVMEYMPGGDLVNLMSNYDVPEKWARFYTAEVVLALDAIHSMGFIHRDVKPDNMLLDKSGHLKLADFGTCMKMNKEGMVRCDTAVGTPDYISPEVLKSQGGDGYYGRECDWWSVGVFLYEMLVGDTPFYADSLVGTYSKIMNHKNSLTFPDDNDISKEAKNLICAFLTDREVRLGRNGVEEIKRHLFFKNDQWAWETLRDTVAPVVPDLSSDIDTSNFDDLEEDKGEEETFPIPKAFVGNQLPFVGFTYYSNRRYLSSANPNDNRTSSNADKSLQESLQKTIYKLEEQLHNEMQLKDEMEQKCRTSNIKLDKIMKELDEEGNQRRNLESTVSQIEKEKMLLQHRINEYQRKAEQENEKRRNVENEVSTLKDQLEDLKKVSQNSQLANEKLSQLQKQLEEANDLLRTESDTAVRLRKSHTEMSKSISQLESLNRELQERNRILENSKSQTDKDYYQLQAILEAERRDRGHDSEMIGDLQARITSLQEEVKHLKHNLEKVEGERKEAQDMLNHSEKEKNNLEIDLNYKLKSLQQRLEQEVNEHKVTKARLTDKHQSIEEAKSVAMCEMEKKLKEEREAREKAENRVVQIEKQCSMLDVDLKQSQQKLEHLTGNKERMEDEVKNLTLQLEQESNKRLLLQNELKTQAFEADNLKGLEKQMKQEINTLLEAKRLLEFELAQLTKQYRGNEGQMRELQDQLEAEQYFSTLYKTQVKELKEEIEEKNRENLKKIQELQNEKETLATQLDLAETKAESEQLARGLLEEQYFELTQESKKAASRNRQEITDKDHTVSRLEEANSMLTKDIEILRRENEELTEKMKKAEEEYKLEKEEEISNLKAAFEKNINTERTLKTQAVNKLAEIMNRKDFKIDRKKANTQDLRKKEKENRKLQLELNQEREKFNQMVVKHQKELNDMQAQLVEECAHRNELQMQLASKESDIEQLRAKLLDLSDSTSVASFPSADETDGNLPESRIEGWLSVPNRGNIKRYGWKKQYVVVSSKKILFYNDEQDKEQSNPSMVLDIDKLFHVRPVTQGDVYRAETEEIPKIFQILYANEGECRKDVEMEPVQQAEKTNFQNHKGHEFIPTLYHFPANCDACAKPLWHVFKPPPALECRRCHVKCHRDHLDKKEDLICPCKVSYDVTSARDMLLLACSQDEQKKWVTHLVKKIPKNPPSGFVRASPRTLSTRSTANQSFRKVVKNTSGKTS
# T12 sequence (O75116 whole entry): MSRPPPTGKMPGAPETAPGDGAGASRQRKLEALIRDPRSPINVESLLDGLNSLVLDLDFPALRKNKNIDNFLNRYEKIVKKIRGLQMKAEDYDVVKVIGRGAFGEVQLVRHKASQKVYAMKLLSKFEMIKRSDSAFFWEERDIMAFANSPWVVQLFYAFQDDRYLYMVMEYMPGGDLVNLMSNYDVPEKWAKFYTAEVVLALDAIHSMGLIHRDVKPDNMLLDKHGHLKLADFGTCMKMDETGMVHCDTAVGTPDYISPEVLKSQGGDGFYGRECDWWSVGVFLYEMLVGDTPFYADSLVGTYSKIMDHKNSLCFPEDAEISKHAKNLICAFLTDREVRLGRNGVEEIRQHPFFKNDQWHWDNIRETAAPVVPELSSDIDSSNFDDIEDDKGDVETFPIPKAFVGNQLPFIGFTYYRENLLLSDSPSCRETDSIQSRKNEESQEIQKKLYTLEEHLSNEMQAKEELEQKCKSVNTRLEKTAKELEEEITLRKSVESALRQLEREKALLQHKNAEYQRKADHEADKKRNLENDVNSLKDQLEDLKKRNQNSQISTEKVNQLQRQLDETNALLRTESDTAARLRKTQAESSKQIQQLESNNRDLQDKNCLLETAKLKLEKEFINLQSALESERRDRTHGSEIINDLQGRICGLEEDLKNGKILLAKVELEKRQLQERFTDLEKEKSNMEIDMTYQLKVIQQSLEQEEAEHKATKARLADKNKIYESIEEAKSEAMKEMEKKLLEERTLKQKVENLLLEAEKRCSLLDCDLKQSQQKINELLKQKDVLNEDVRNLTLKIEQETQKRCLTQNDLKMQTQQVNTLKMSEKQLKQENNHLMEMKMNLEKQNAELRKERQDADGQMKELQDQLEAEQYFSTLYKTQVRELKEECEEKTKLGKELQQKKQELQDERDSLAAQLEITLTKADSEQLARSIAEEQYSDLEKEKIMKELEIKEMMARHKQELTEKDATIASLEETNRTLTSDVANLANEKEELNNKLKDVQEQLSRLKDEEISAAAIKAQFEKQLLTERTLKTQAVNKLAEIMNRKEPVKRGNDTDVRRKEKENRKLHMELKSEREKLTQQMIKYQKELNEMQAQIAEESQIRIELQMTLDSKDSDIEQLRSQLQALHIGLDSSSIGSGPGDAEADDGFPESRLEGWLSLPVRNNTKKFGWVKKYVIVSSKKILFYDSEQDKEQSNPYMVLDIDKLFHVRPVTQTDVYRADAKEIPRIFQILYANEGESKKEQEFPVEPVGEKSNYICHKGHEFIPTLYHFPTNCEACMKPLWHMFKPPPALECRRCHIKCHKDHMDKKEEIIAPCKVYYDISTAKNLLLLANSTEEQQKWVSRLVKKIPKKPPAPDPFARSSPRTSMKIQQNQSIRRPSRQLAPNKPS
# T19 sequence (P45983 whole entry): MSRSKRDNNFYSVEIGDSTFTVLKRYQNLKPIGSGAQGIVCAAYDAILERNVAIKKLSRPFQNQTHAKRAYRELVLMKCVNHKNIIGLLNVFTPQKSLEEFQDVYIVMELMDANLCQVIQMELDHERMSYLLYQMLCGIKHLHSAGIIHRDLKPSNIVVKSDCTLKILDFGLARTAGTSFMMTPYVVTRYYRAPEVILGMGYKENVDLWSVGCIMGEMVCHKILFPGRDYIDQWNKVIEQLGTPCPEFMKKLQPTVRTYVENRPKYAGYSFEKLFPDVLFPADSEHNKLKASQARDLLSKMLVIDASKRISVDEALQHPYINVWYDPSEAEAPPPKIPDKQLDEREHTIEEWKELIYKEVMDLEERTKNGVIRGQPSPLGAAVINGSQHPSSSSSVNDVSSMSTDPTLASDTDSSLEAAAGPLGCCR
# T8 sequence (P08581 25-1390): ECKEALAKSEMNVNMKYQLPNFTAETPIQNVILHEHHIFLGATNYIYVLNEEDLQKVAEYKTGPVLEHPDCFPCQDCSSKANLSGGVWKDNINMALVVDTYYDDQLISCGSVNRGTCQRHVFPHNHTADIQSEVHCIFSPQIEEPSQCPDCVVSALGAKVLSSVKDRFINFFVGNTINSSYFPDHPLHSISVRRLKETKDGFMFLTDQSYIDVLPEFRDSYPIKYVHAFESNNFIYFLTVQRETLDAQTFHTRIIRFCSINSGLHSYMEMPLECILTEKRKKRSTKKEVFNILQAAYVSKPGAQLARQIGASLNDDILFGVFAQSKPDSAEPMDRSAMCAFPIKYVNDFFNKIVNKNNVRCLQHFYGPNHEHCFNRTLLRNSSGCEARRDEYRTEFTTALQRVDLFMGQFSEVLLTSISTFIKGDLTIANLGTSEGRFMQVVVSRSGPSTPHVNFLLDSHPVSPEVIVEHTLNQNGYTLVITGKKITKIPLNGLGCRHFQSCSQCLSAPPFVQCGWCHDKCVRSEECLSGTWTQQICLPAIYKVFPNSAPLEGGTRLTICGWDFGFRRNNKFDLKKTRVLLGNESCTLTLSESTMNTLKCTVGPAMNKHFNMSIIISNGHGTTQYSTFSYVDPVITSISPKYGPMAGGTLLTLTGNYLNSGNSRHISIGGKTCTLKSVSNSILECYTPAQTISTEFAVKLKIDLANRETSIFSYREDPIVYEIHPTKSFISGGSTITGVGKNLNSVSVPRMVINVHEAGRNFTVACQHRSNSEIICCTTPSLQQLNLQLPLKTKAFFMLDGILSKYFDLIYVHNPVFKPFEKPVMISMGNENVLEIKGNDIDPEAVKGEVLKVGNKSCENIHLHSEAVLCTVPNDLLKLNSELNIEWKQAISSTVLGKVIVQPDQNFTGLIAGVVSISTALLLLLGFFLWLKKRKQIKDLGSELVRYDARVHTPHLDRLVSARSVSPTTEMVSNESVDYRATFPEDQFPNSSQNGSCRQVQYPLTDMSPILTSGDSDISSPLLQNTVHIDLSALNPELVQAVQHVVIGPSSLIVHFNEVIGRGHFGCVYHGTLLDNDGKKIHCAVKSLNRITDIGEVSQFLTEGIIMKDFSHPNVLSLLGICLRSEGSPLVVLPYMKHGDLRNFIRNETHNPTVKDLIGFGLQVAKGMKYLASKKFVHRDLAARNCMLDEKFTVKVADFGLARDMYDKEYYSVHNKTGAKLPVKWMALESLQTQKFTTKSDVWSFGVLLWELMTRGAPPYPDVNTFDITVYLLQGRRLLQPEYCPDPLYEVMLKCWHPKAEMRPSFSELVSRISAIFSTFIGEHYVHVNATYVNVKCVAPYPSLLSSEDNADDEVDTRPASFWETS
compound,measurement,setting,value
Ic1ccc2ncnc(NCCc3ccccc3)c2c1 [compound 3],IC50,"[1]; read-out: IC50, p21 induced by 8 μM IPTG, 8 μM IPTG, 72 hours",1850 nM
CC(C)Nc1ncnc2ccc(I)cc12 [SNX14],IC50,"[1]; Table 1, IC50 calculated on the basis of the maximal inhibition produced by the highest doses, IPTG mode (50 μM or 2 μM) not stated, read-out: Cell-based assay (IC50)",6430 nM
same,"percent of control (POC) activity, CDK7",[2],≥ 49% of control (POC)
same,"percent of control (POC) activity, CDK3",[3],≥ 49% of control (POC)
same,"percent of control (POC) activity, CDK9",[4],≥ 49% of control (POC)
same,"percent of control (POC) activity, CDK1",[5],≥ 49% of control (POC)
same,"percent of control (POC) activity, CDK2",[6],≥ 49% of control (POC)
same,"percent of control (POC) activity, CDK5",[7],≥ 49% of control (POC)
same,Kd,[8],10000 nM
same,Kd,[9],3800 nM
cortistatin A,"POC, MET",[10],18 POC
same,"POC, LTK",[11],2.9 POC
same,"POC, CIT",[12],28 POC
same,IC50,[13],6000 to 7000 nM
same,"POC, CDK19",[14]; [27],0.1 POC
same,Kd,[14]; Cee et al. (2009),10 nM
same,"POC, RIOK2",[15],21 POC
same,"POC, ROCK2 (ROCK II)",[16]; [27],0 POC
same,Kd,"[16]; Cee et al. (2009), read-out: Kd ROCK II",220 nM
same,"POC, PKACb",[17],13 POC
same,"POC, ALK",[18],4.4 POC
same,"POC, ROCK1",[19]; [27],21 POC
same,Kd,"[19]; Cee et al. (2009), read-out: Kd ROCK I",250 nM
same,IC50,[20],1.8 nM
same,"POC, PRKG2",[21],21 POC
same,"POC, PKACa",[22],8.7 POC
same,"POC, CLK4",[23],26 POC
same,"POC, JNK1",[24],29 POC
same,"POC, PIM2",[25],4.4 POC
same,"POC, ROS1",[26],26 POC
"COc1cc2ncnc(Nc3ccc(F)c(Cl)c3)c2cc1OCCCN1CCOCC1 [gefitinib, reference compound]",CDKI pathway inhibition,[1],inactive
